Experimental data published in patent US20070010671A1, “Novel quinazoline derivatives and methods of treatment related to the use thereof” (priority 2003, published 2007).

Target: MCH receptor (Homo sapiens, UniProt Q99705)
Test: High throughput functional screening FLIPR/FDSS6000: inhibition of MCH-evoked intracellular Ca2+ changes
Format: cell-based
Conditions: class by percent of control at 10^-7 M or IC50
Method in brief: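 Antagonism is measured as inhibition of the intracellular calcium rise triggered by 50 nM MCH in cells bearing a constitutively active, non-endogenous form of the receptor. Cells are dye-loaded with Fluo4-AM and exposed to compound for 3 min at 37° C before agonist addition.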

Compound | class
CN(C)c1nc(N[C@H]2CC[C@@H](CNC(=O)Nc3ccc4c(c3)Cc3ccccc3-4)CC2)nc2ccccc12 [compound 569] | 3 (Class 3: The value of percent of control at 10^−7 M was more than 60% or the value of IC50 was more than 200 nM.)
CN(C)c1nc(N[C@H]2CC[C@@H](CNC(=O)Nc3ccc(C(F)(F)F)cc3)CC2)nc2ccccc12 [compound 536] | 3 (Class 3: The value of percent of control at 10^−7 M was more than 60% or the value of IC50 was more than 200 nM.)
CN(C)c1nc(N[C@H]2CC[C@@H](NC(=S)NCc3ccc(Cl)cc3Cl)CC2)nc2ccccc12 [compound 294] | 3 (Class 3: The value of percent of control at 10^−7 M was more than 60% or the value of IC50 was more than 200 nM.)
CN(C)c1nc(N[C@H]2CC[C@@H](CNC(=O)Nc3ccc(Br)cc3)CC2)nc2ccccc12 [compound 413] | 3 (Class 3: The value of percent of control at 10^−7 M was more than 60% or the value of IC50 was more than 200 nM.)
CC(C)c1ccc(NC(=S)NC[C@H]2CC[C@@H](Nc3nc(N(C)C)c4ccccc4n3)CC2)cc1 [compound 699] | 3 (Class 3: The value of percent of control at 10^−7 M was more than 60% or the value of IC50 was more than 200 nM.)
CN(C)c1nc(N[C@H]2CC[C@@H](CNC(=S)Nc3cccc(C#N)c3)CC2)nc2ccccc12 [compound 649, N-(3-ciyanophenyl)-N′-[(cis-4-{[4-(dimethylamino)quinazolin-2-yl]amino}cyclohexyl)methyl]thiourea] | 3 (Class 3: The value of percent of control at 10^−7 M was more than 60% or the value of IC50 was more than 200 nM.)
CN(C)c1nc(N[C@H]2CC[C@@H](CNC(=O)NC3CCN(C(=O)OCc4ccccc4)CC3)CC2)nc2ccccc12 [compound 770] | 3 (Class 3: The value of percent of control at 10^−7 M was more than 60% or the value of IC50 was more than 200 nM.)
Cc1ccc(NC(=O)NC[C@H]2CC[C@@H](Nc3nc(N(C)C)c4ccccc4n3)CC2)cc1[N+](=O)[O-] [compound 558, N-[(cis-4-{[4-(dimethylamino)quinazolin-2-yl]amino}cyclohexyl)methyl]-N′-(4-methyl-3-nitrophenyl)urea] | 2 (Class 2: The value of percent of control at 10^−7 M was from 40% to 60% or the value of IC50 was from 50 nM to 200 nM.)
CSc1ccccc1NC(=S)NC[C@H]1CC[C@@H](Nc2nc(N(C)C)c3ccccc3n2)CC1 [compound 630] | 3 (Class 3: The value of percent of control at 10^−7 M was more than 60% or the value of IC50 was more than 200 nM.)
CN(C)c1nc(N[C@H]2CC[C@@H](NC(=S)NCc3ccc(Cl)c(Cl)c3)CC2)nc2ccccc12 [compound 258] | 3 (Class 3: The value of percent of control at 10^−7 M was more than 60% or the value of IC50 was more than 200 nM.)
COc1ccc(NC(=O)NC[C@H]2CC[C@@H](Nc3nc(N(C)C)c4ccccc4n3)CC2)cc1OC [compound 523] | 3 (Class 3: The value of percent of control at 10^−7 M was more than 60% or the value of IC50 was more than 200 nM.)
Cc1cccc(CNC(=S)N[C@H]2CC[C@@H](Nc3nc(N(C)C)c4ccccc4n3)CC2)c1 [compound 310, N-(cis-4-{[4-(dimethylamino)quinazolin-2-yl]amino}cyclohexyl)-N′-(3-methylbenzyl)thiourea] | 2 (Class 2: The value of percent of control at 10^−7 M was from 40% to 60% or the value of IC50 was from 50 nM to 200 nM.)
Cc1ccc(NC(=S)N[C@H]2CC[C@@H](Nc3nc(N(C)C)c4ccccc4n3)CC2)cc1C [compound 369] | 3 (Class 3: The value of percent of control at 10^−7 M was more than 60% or the value of IC50 was more than 200 nM.)
CCCc1ccccc1NC(=O)NC[C@H]1CC[C@@H](Nc2nc(N(C)C)c3ccccc3n2)CC1 [compound 513, N-[(cis-4-{[4-(dimethylamino)quinazolin-2-yl]amino}cyclohexyl)methyl]-N′-(2-propylphenyl)urea] | 1 (Class 1: The value of percent of control at 10^−7 M was less than 40% or the value of IC50 was less than 50 nM.)
N-[(cis-4-{[4-(dimethylamino)quinazolin-2-yl]amino}cyclohexyl)methyl]-N′-(2-methoxy-5-nitrophenyl)urea [compound 508] | 2 (Class 2: The value of percent of control at 10^−7 M was from 40% to 60% or the value of IC50 was from 50 nM to 200 nM.)
COc1cccc(CNC(=S)NC[C@H]2CC[C@@H](Nc3nc(N(C)C)c4ccccc4n3)CC2)c1OC [compound 716] | 2 (Class 2: The value of percent of control at 10^−7 M was from 40% to 60% or the value of IC50 was from 50 nM to 200 nM.)
CN(C)c1nc(N[C@H]2CC[C@@H](CNC(=S)NCc3cccc(F)c3)CC2)nc2ccccc12 [compound 732] | 3 (Class 3: The value of percent of control at 10^−7 M was more than 60% or the value of IC50 was more than 200 nM.)
CCOC(=O)[C@H](Cc1ccccc1)NC(=O)NC[C@H]1CC[C@@H](Nc2nc(N(C)C)c3ccccc3n2)CC1 (relative stereo) [compound 756] | 3 (Class 3: The value of percent of control at 10^−7 M was more than 60% or the value of IC50 was more than 200 nM.)
COc1ccc(C)cc1NC(=S)NC[C@H]1CC[C@@H](Nc2nc(N(C)C)c3ccccc3n2)CC1 [compound 645] | 3 (Class 3: The value of percent of control at 10^−7 M was more than 60% or the value of IC50 was more than 200 nM.)
CN(C)c1nc(N[C@H]2CC[C@@H](NC(=S)Nc3c(Cl)c(Cl)cc(Cl)c3Cl)CC2)nc2ccccc12 [compound 291] | 3 (Class 3: The value of percent of control at 10^−7 M was more than 60% or the value of IC50 was more than 200 nM.)
CC(=O)c1ccc(NC(=O)NC[C@H]2CC[C@@H](Nc3nc(N(C)C)c4ccccc4n3)CC2)cc1 [compound 407] | 3 (Class 3: The value of percent of control at 10^−7 M was more than 60% or the value of IC50 was more than 200 nM.)

Same assay, conditions: class by percent of control at 10^-7 M or by IC50; read-out: class

IC50 [nM] | Compound
> 200 | CN(C)c1nc(N[C@H]2CC[C@@H](NC(=O)Nc3cccc(F)c3)CC2)nc2ccccc12 [compound 37]
50 to 200 | Cc1cccc(NC(=O)N[C@H]2CC[C@@H](Nc3nc(N(C)C)c4ccccc4n3)CC2)c1 [compound 59, N-(cis-4-{[4-(dimethylamino)quinazolin-2-yl]amino}cyclohexyl)-N′-(3-methylphenyl)urea]
> 200 | CN(C)c1nc(N[C@H]2CC[C@@H](C(=O)NCc3ccc(F)cc3F)CC2)nc2ccccc12 [Example 922, cis-N-(2,4-Difluorobenzyl)-4-{[4-(dimethylamino)quinazolin-2-yl]amino}cyclohexanecarbozamide]
50 to 200 | CN(C)c1nc(N[C@H]2CC[C@@H](NC(=S)NCc3ccc4c(c3)OCO4)CC2)nc2ccccc12 [compound 180, N-(1,3-benzodioxol-5-ylmethyl)-N′-(cis-4-{[4-(dimethylamino)quinazolin-2-yl]amino}cyclohexyl)thiourea]
< 50 | CN(C)c1nc(N[C@H]2CC[C@@H](NC(=O)Nc3ccccc3Br)CC2)nc2ccccc12 [compound 10, N-(2-bromophenyl)-N′-(cis-4-{[4-(dimethylamino)quinazolin-2-yl]amino}cyclohexyl)urea]
> 200 | CN(C)c1nc(N[C@H]2CC[C@@H](NC(=O)Nc3ccc(Br)cc3Cl)CC2)nc2ccccc12 [compound 143]
> 200 | CN(C)c1nc(N[C@H]2CC[C@@H](NC(=S)Nc3cccc(Cl)c3)CC2)nc2ccccc12 [compound 163]
< 50 | Cc1cccc(Cl)c1NC(=O)N[C@H]1CC[C@@H](Nc2nc(N(C)C)c3ccccc3n2)CC1 [compound 90]
> 200 | CN(C)c1nc(N[C@H]2CC[C@@H](NC(=O)Nc3ccc(OCc4ccccc4)cc3)CC2)nc2ccccc12 [compound 139]
> 200 | CN(C)c1nc(N[C@H]2CC[C@@H](NC(=O)Nc3ccc(Cl)c(C(F)(F)F)c3)CC2)nc2ccccc12 [compound 148]
< 50 | COc1ccccc1NC(=S)N[C@H]1CC[C@@H](Nc2nc(N(C)C)c3ccccc3n2)CC1 [compound 185, N-(cis-4-{[4-(dimethylamino)quinazolin-2-yl]amino}cyclohexyl)-N′-(2-methoxyphenyl)thiourea]

Compound | IC50 [nM]
CN(C)c1nc(N[C@H]2CC[C@@H](CNC(=O)Oc3cccc(C(F)(F)F)c3)CC2)nc2ccccc12 [compound 869] | > 200

Same assay, conditions: class by percent of control at 10^−7 M or by IC50; read-out: class

IC50 [nM] | Compound
< 50 | CN(C)c1nc(N[C@H]2CC[C@@H](NC(=O)c3cccnc3Oc3ccccc3Cl)CC2)nc2ccccc12 [Example 1031, 2-(2-chlorophenoxy)-N-(cis-4-{[4-(dimethylamino)quinazolin-2-yl]amino}cyclohexyl)nicotinamide]
< 50 | CN(C)c1nc(N[C@H]2CC[C@@H](NC(=O)c3cccnc3Oc3ccccc3F)CC2)nc2ccccc12 [Example 1030, N-(cis-4-{[4-(dimethylamino)quinazolin-2-yl]amino}cyclohexyl)-2-(2-fluorophenoxy)nicotinamide]
< 50 | CN(C)c1nc(N[C@H]2CC[C@@H](C(=O)NCc3ccc(Cl)c(C(F)(F)F)c3)CC2)nc2ccccc12 [Example 1178, cis-N-[4-chloro-3-(trifluoromethyl)benzyl]-4-{[4-(dimethylamino)quinazolin-2-yl]amino}cyclohexanecarboxamide]
50 to 200 | COc1cc(Cl)ccc1Oc1ccc(C(=O)N[C@H]2CC[C@@H](Nc3nc(N(C)C)c4ccccc4n3)CC2)cn1 [Example 1068, 6-(4-chloro-2-methoxyphenoxy)-N-(cis-4-{[4-(dimethylamino)quinazolin-2-yl]amino}cyclohexyl)nicotinamide]
< 50 | CN(C)c1nc(N[C@H]2CC[C@@H](NC(=O)CN(C)c3ccccc3)CC2)nc2ccccc12 [Example 1088, N-(cis-4-{[4-(dimethylamino)quinazolin-2-yl]amino}cyclohexyl)-N2-methyl-N2-phenylglycinamide]
< 50 | COc1cccc(Oc2ncccc2C(=O)N[C@H]2CC[C@@H](Nc3nc(N(C)C)c4ccccc4n3)CC2)c1 [Example 1035, N-(cis-4-{[4-(dimethylamino)quinazolin-2-yl]amino}cyclohexyl)-2-(3-methoxyphenoxy)nicotinamide]
